From patent publication US8252935B2, “Piperidinyl and piperazinyl modulators of γ-secretase” (Janssen Pharmaceutica N.V., priority 2007, dated 2012) come the findings set out here.

For the test, the target named is γ-secretase (Homo sapiens, UniProt P49768). Nature of the test: Screening for γ-secretase-modulating activity in SKNBE2 cells carrying APP 695 wild type (assay of Citron et al 1997). The test is classed as cell-based. Particulars: SKNBE2, @ 1 uM; SKNBE2 cells carrying the APP 695 wild type. Here is the method: Screening was carried out using SKNBE2 cells carrying the APP 695—wild type, grown in DMEM/NUT-mix F12 (HAM) provided by Gibco (cat no. 31330-38) containing 5% Serum/Fe supplemented with 1% non-essential amino acids. Cells were grown to near confluency. The screening was performed using the assay as described in Citron et al (1997) Nature Medicine 3: 67.
As for `COc1ccc(CN2CCCC(c3cc(-c4ccc(C(F)(F)F)cc4)cc(C(CC(C)C)C(=O)O)c3)C2)cc1C(F)(F)F` (stereo not drawn) [Example 51, 2-{5-[1-(4-Methoxy-3-trifluoromethyl-benzyl)-piperidin-3-yl]-4′-trifluoromethyl-biphenyl-3-yl}-4-methyl-pentanoic acid], the inhibition at 1 µM amounted to 48%.

The compound `CC(C)CC(C(=O)O)c1cc(-c2ccc(C(F)(F)F)cc2)cc(C2CCCN(Cc3cc(C(C)(C)C)cc(C(C)(C)C)c3)C2)c1` (stereo not drawn) [Example 52, 2-{5-[1-(3,5-Di-tert-butyl-benzyl)-piperidin-3-yl]-4′-trifluoromethyl-biphenyl-3-yl}-4-methyl-pentanoic acid] gave an inhibition at 1 µM of 58%.

On to `CC(C)CC(C(=O)O)c1cc(-c2ccc(C(F)(F)F)cc2)cc(C2CCCN(Cc3cc(C(F)(F)F)cc(C(F)(F)F)c3)C2)c1` (stereo not drawn) [Example 53, 2-{5-[1-(3,5-Bis-trifluoromethyl-benzyl)-piperidin-3-yl]-4′-trifluoromethyl-biphenyl-3-yl}-4-methyl-pentanoic acid], for which the inhibition at 1 µM amounted to 57%. With `CC(C)CC(C(=O)O)c1cc(-c2ccc(C(F)(F)F)cc2)cc(C2CCCN(C(c3ccccc3)c3ccccc3)C2)c1` (stereo not drawn) [Example 54, 2-[5-(1-Benzhydryl-piperidin-3-yl)-4′-trifluoromethyl-biphenyl-3-yl]-4-methyl-pentanoic acid] the figure was 80%; with `CC(C)CC(C(=O)O)c1cc(-c2ccc(C(F)(F)F)cc2)cc(C2CCCN(c3ccc(F)c(F)c3)C2)c1` (stereo not drawn) [Example 55, 2-{5-[1-(3,4-Difluoro-phenyl)-piperidin-3-yl]-4′-trifluoromethyl-biphenyl-3-yl}-4-methyl-pentanoic acid], 45%. With `CC(C)CC(C(=O)O)c1cc(-c2ccc(C(F)(F)F)cc2)cc(C2CCCN(c3ccccc3)C2)c1` (stereo not drawn) [Example 58, 4-Methyl-2-[5-(1-phenyl-piperidin-3-yl)-4′-trifluoromethyl-biphenyl-3-yl]-pentanoic acid] the figure was 40%; with `CC(C)CC(C(=O)O)c1cc(-c2ccc(C(F)(F)F)cc2)cc(C2CCCN(c3ccc(C(F)(F)F)cc3)C2)c1` (stereo not drawn) [Example 59, 4-Methyl-2-{4′-trifluoromethyl-5-[1-(4-trifluoromethyl-phenyl)-piperidin-3-yl]-biphenyl-3-yl}-pentanoic acid], 37%. Next, `COCCCC1CCCCN1c1cc(-c2ccc(C(F)(F)F)cc2)cc([C@@H](CC(C)C)C(=O)O)c1` (stereo partly drawn) [Example 60, (R)-2-{5-[2-(3-Methoxy-propyl)-piperidin-1-yl]-4′-trifluoromethyl-biphenyl-3-yl}-4-methyl-pentanoic acid]: 52%; `CC(C)CCN1CCCC(c2cc(-c3ccc(C(F)(F)F)cc3)cc(C(CC(C)C)C(=O)O)c2)C1` (stereo not drawn) [Example 62, 4-Methyl-2-{5-[1-(3-methyl-butyl)-piperidin-3-yl]-4′-trifluoromethyl-biphenyl-3-yl}-pentanoic acid]: 5%; `CCN1CCCC(c2cc(-c3ccc(C(F)(F)F)cc3)cc(C(CC(C)C)C(=O)O)c2)C1` (stereo not drawn) [Example 66, 2-[5-(1-Ethyl-piperidin-3-yl)-4′-trifluoromethyl-biphenyl-3-yl]-4-methyl-pentanoic acid]: 0%.

For `CC(C)CC(C(=O)O)c1cc(-c2ccc(C(F)(F)F)cc2)cc(C2CCCN(Cc3ccccc3)C2)c1` (stereo not drawn) [Example 67, 2-[5-(1-Benzyl-piperidin-3-yl)-4′-trifluoromethyl-biphenyl-3-yl]-4-methyl-pentanoic acid], the inhibition at 1 µM turned out to be 49%.

`CC(C)CC(C(=O)O)c1cc(-c2ccc(C(F)(F)F)cc2)cc(C2CCNCC2)c1` (stereo not drawn) [Example 68, 4-Methyl-2-(5-piperidin-4-yl-4′-trifluoromethyl-biphenyl-3-yl)-pentanoic acid] showed an inhibition at 1 µM of 2%. Compound `CC(C)/C=C/CN1CCC(c2cc(-c3ccc(C(F)(F)F)cc3)cc(C(CC(C)C)C(=O)O)c2)CC1` (stereo not drawn) [Example 69, 4-Methyl-2-{5-[1-(4-methyl-pent-2-enyl)-piperidin-4-yl]-4′-trifluoromethyl-biphenyl-3-yl}-pentanoic acid] had an inhibition at 1 µM of 8%.

In the case of `CC(C)CC(C(=O)O)c1cc(-c2ccc(C(F)(F)F)cc2)cc(C2CCN(Cc3cc(F)cc(C(F)(F)F)c3)CC2)c1` (stereo not drawn) [Example 70, 2-{5-[1-(3-Fluoro-5-trifluoromethyl-benzyl)-piperidin-4-yl]-4′-trifluoromethyl-biphenyl-3-yl}-4-methyl-pentanoic acid], at 1 µM the inhibition was 47%. Next, `CC(C)CCC(c1ccc(C(F)(F)F)cc1)N1CCC(c2cc(-c3ccc(C(F)(F)F)cc3)cc(C(CC(C)C)C(=O)O)c2)CC1` (stereo not drawn) [Example 71, 4-Methyl-2-(5-{1-[4-methyl-1-(4-trifluoromethyl-phenyl)-pentyl]-piperidin-4-yl}-4′-trifluoromethyl-biphenyl-3-yl)-pentanoic acid]: 51%; `CC(C)CC(C(=O)O)c1cc(-c2ccc(C(F)(F)F)cc2)cc(C2CCN(c3ccc(C(F)(F)F)cc3)CC2)c1` (stereo not drawn) [Example 72, 4-Methyl-2-{4′-trifluoromethyl-5-[1-(4-trifluoromethyl-phenyl)-piperidin-4-yl]-biphenyl-3-yl}-pentanoic acid]: 6%; `CC(C)CC(C(=O)O)c1cc(-c2ccc(C(F)(F)F)cc2)cc(C2CC[N+](C)(C)CC2)c1` (stereo not drawn) [Example 73, 2-[5-(1,1-Dimethyl-piperidin-4-yl)-4′-trifluoromethyl-biphenyl-3-yl]-4-methyl-pentanoic acid]: 9%. With `CC(C)CC(C(=O)O)c1cc(-c2ccc(C(F)(F)F)cc2)cc(C2CCN(C3CCCCC3)CC2)c1` (stereo not drawn) [Example 74, 2-[5-(1-Cyclohexyl-piperidin-4-yl)-4′-trifluoromethyl-biphenyl-3-yl]-4-methyl-pentanoic acid] the figure was 4%; with `CC(C)CC(C(=O)O)c1cc(-c2ccc(C(F)(F)F)cc2)cc(C2CCN(Cc3cc(F)cc(F)c3)CC2)c1` (stereo not drawn) [Example 75, 2-{5-[1-(3,5-Difluoro-benzyl)-piperidin-4-yl]-4′-trifluoromethyl-biphenyl-3-yl}-4-methyl-pentanoic acid], 46%. With `CC(C)CCN1CCC(c2cc(-c3ccc(C(F)(F)F)cc3)cc(C(CC(C)C)C(=O)O)c2)CC1` (stereo not drawn) [Example 76, 4-Methyl-2-{5-[1-(3-methyl-butyl)-piperidin-4-yl]-4′-trifluoromethyl-biphenyl-3-yl}-pentanoic acid] the figure was 11%; with `CC(C)CCCN1CCC(c2cc(-c3ccc(C(F)(F)F)cc3)cc(C(CC(C)C)C(=O)O)c2)CC1` (stereo not drawn) [Example 77, 4-Methyl-2-{5-[1-(4-methyl-pentyl)-piperidin-4-yl]-4′-trifluoromethyl-biphenyl-3-yl}-pentanoic acid], 36%.

In turn, `CC(C)CC(C(=O)O)c1cc(-c2ccc(C(F)(F)F)cc2)cc(C2CCN(Cc3ccc(C(F)(F)F)cc3)CC2)c1` (stereo not drawn) [Example 78, 4-Methyl-2-{4′-trifluoromethyl-5-[1-(4-trifluoromethyl-benzyl)-piperidin-4-yl]-biphenyl-3-yl}-pentanoic acid] returned an inhibition at 1 µM of 35%. Next, `CC(C)CC(C(=O)O)c1cc(-c2ccc(C(F)(F)F)cc2)cc(N2CCN(c3ccc(F)c(F)c3)CC2)c1` (stereo not drawn) [Example 79, 2-{5-[4-(3,4-Difluoro-phenyl)-piperazin-1-yl]-4′-trifluoromethyl-biphenyl-3-yl}-4-methyl-pentanoic acid]: 28%; `CC(C)CC(C(=O)O)c1cc(-c2ccc(C(F)(F)F)cc2)cc(N2CCN(c3cccc(C(F)(F)F)c3)CC2)c1` (stereo not drawn) [Example 80, 4-Methyl-2-{4′-trifluoromethyl-5-[4-(3-trifluoromethyl-phenyl)-piperazin-1-yl]-biphenyl-3-yl}-pentanoic acid]: 35%. With `CC(C)CC(C(=O)O)c1cc(-c2ccc(C(F)(F)F)cc2)cc(N2CCN(c3ccc(C(F)(F)F)cc3)CC2)c1` (stereo not drawn) [Example 81, 4-Methyl-2-{4′-trifluoromethyl-5-[4-(4-trifluoromethyl-phenyl)-piperazin-1-yl]-biphenyl-3-yl}-pentanoic acid] the figure was 63%. With `CC(C)CC(C(=O)O)c1cc(-c2ccc(C(F)(F)F)cc2)cc(N2CCNCC2)c1` (stereo not drawn) [Example 82, 4-Methyl-2-(5-piperazin-1-yl-4′-trifluoromethyl-biphenyl-3-yl)-pentanoic acid] the figure was 5%; with `Cc1ccccc1CC1CCCCN1c1cc(-c2ccc(C(F)(F)F)cc2)cc(C(CC(C)C)C(=O)O)c1` (stereo not drawn) [Example 83, 4-Methyl-2-{5-[2-(2-methyl-benzyl)-piperidin-1-yl]-4′-trifluoromethyl-biphenyl-3-yl}-pentanoic acid], 44%.
